Source: US8349828B2, “Azatricyclic antibiotic compounds” (Actelion Pharmaceuticals Ltd., priority 2008, dated 2013)
≈ marks a conversion by molar mass, not a printed value.

tested on: M. catarrhalis A894; assay: MIC determination by microdilution in cation-adjusted Mueller-Hinton Broth (CLSI M7-A7); assay type: cell-based; details: Moraxella catarrhalis, A894, microdilution method
Procedure: Minimal inhibitory concentrations (MICs, in mg/l) were determined in cation-adjusted Mueller-Hinton Broth by a microdilution method following the description given in “Methods for Dilution Antimicrobial Susceptibility Tests for Bacteria that Grow Aerobically”, Approved standard, 7th ed., Clinical and Laboratory Standards Institute (CLSI) Document M7-A7, Wayne, Pa., USA, 2006. All Example compounds were tested against several Gram-positive and Gram-negative bacteria.

Structure (SMILES) | MIC [µg/mL]
O=C1CSc2ccc(N3C[C@@H](CNCC4Cn5c(=O)ccc6nccc(c65)O4)OC3=O)cc2N1 (mixture of isomers) [Example 1, 2-(RS)-({[(R)-2-oxo-3-(3-oxo-3,4-dihydro-2H-benzo[1,4]thiazin-6-yl)-oxazolidin-5-ylmethyl]-amino}-methyl)-2,3-dihydro-1-oxa-3a,7-diaza-phenalen-4-one] | ≤ 0.063
O=C1COc2ccc(N3C[C@@H](CNCC4Cn5c(=O)ccc6nccc(c65)O4)OC3=O)cc2N1 (mixture of isomers) [Example 2, 2-(RS)-({[(R)-2-oxo-3-(3-oxo-3,4-dihydro-2H-benzo[1,4]oxazin-6-yl)-oxazolidin-5-ylmethyl]-amino}-methyl)-2,3-dihydro-1-oxa-3a,7-diaza-phenalen-4-one] | 0.5
O=C1CSc2ccc(N3C[C@@H](CNCC4Cc5c(F)ccc6ccc(=O)n(c56)C4)OC3=O)cc2N1 (mixture of isomers) [Example 3, (6RS)-8-fluoro-6-({[(R)-2-oxo-3-(3-oxo-3,4-dihydro-2H-benzo[1,4]thiazin-6-yl)-oxazolidin-5-ylmethyl]-amino}-methyl)-6,7-dihydro-5H-pyrido[3,2,1-ij]quinolin-3-one] | ≤ 0.063
O=C1COc2ccc(N3C[C@@H](CNCC4Cc5c(F)ccc6ccc(=O)n(c56)C4)OC3=O)cc2N1 (mixture of isomers) [Example 4, (6RS)-8-fluoro-6-({[(R)-2-oxo-3-(3-oxo-3,4-dihydro-2H-benzo[1,4]oxazin-6-yl)-oxazolidin-5-ylmethyl]-amino}-methyl)-6,7-dihydro-5H-pyrido[3,2,1-ij]quinolin-3-one] | ≤ 0.063
O=C1O[C@H](CNCC2Cc3c(F)ccc4ccc(=O)n(c34)C2)CN1c1ccc2c(c1)OCCO2 (mixture of isomers) [Example 5, (6RS)-6-({[(R)-3-(2,3-dihydro-benzo[1,4]dioxin-6-yl)-2-oxo-oxazolidin-5-ylmethyl]-amino}-methyl)-8-fluoro-6,7-dihydro-5H-pyrido[3,2,1-ij]quinolin-3-one] | ≤ 0.063
O=C1CSc2ccc(N3C[C@@H](CNCC4Cc5c(F)ccc6ccc(=O)n4c56)OC3=O)cc2N1 (mixture of isomers) [Example 9, (RS)-9-fluoro-2-({[(R)-2-oxo-3-(3-oxo-3,4-dihydro-2H-benzo[1,4]thiazin-6-yl)-oxazolidin-5-ylmethyl]-amino}-methyl)-1,2-dihydro-pyrrolo[3,2,1-ij]quinolin-4-one] | ≤ 0.063
O=C1CSc2ccc(N3CC(CCNC[C@H]4Cc5c(F)ccc6ccc(=O)n4c56)OC3=O)cc2N1 (mixture of isomers) [Example 10, (R)-9-fluoro-2-({2-[(RS)-2-oxo-3-(3-oxo-3,4-dihydro-2H-benzo[1,4]thiazin-6-yl)-oxazolidin-5-yl]-ethylamino}-methyl)-1,2-dihydropyrrolo[3,2,1-ij]quinolin-4-one] | ≤ 0.063
O=C1CSc2ccc(N3C[C@@H](CNCC4Cn5c(=O)ccc6cccc(c65)O4)OC3=O)cc2N1 (mixture of isomers) [Example 11, (RS)-2-({[(R)-2-oxo-3-(3-oxo-3,4-dihydro-2H-benzo[1,4]thiazin-6-yl)-oxazolidin-5-ylmethyl]-amino}-methyl)-2,3-dihydro-1-oxa-3a-aza-phenalen-4-one] | ≤ 0.063
O=C1CSc2ccc(N3C[C@@H](CNCC4Cn5c(=O)ccc6ccc(F)c(c65)O4)OC3=O)cc2N1 (mixture of isomers) [Example 12, (RS)-9-fluoro-2-({[(R)-2-oxo-3-(3-oxo-3,4-dihydro-2H-benzo[1,4]thiazin-6-yl)-oxazolidin-5-ylmethyl]-amino}-methyl)-2,3-dihydro-1-oxa-3a-aza-phenalen-4-one] | ≤ 0.063
O=C1CSc2ccc(N3C[C@@H](CNCC4Cc5c(F)cnc6ccc(=O)n(c56)C4)OC3=O)cc2N1 (mixture of isomers) [Example 13, (RS)-3-fluoro-5-({[(R)-2-oxo-3-(3-oxo-3,4-dihydro-2H-benzo[1,4]thiazin-6-yl)-oxazolidin-5-ylmethyl]-amino}-methyl)-5,6-dihydro-4H-1,6a-diaza-phenalen-7-one] | ≤ 0.063
O=C1COc2ccc(N3C[C@@H](CNCC4Cc5c(F)cnc6ccc(=O)n(c56)C4)OC3=O)cc2N1 (mixture of isomers) [Example 14, (RS)-3-fluoro-5-({[(R)-2-oxo-3-(3-oxo-3,4-dihydro-2H-benzo[1,4]oxazin-6-yl)-oxazolidin-5-ylmethyl]-amino}-methyl)-5,6-dihydro-4H-1,6a-diaza-phenalen-7-one] | ≤ 0.063
O=C1CSc2ccc(N3C[C@@H](CCNCC4Cc5c(F)cnc6ccc(=O)n4c56)OC3=O)cc2N1 (mixture of isomers) [Example 15, (RS)-3-fluoro-5-({2-[(R)-2-oxo-3-(3-oxo-3,4-dihydro-2H-benzo[1,4]thiazin-6-yl)-oxazolidin-5-yl]-ethylamino}-methyl)-4,5-dihydropyrrolo[3,2,1-de][1,5]naphthyridin-7-one] | ≤ 0.063
O=C1COc2ccc(N3C[C@@H](CCNCC4Cc5c(F)ccc6ccc(=O)n4c56)OC3=O)cc2N1 (mixture of isomers) [Example 21, (RS)-9-fluoro-2-({2-[(R)-2-oxo-3-(3-oxo-3,4-dihydro-2H-benzo[1,4]oxazin-6-yl)-oxazolidin-5-yl]-ethylamino}-methyl)-1,2-dihydropyrrolo[3,2,1-ij]quinolin-4-one] | ≤ 0.063
O=C1COc2ccc(N3C[C@H](CCNCC4Cc5c(F)ccc6ccc(=O)n4c56)OC3=O)cc2N1 (mixture of isomers) [Example 22, (RS)-9-fluoro-2-({2-[(S)-2-oxo-3-(3-oxo-3,4-dihydro-2H-benzo[1,4]oxazin-6-yl)-oxazolidin-5-yl]-ethylamino}-methyl)-1,2-dihydropyrrolo[3,2,1-ij]quinolin-4-one] | ≤ 0.063
O=C1COc2ccc(N3C[C@@H](CCNCC4Cc5c(F)ccc6c5N4C(=O)CC6)OC3=O)cc2N1 (mixture of isomers) [Example 23, (RS)-9-fluoro-2-({2-[(R)-2-oxo-3-(3-oxo-3,4-dihydro-2H-benzo[1,4]oxazin-6-yl)-oxazolidin-5-yl]-ethylamino}-methyl)-1,2,5,6-tetrahydropyrrolo[3,2,1-ij]quinolin-4-one] | ≤ 0.063
O=C1CSc2ccc(N3C[C@@H](CCNCC4Cc5ccnc6ccc(=O)n4c56)OC3=O)cc2N1 (mixture of isomers) [Example 24, (RS)-5-({2-[(R)-2-oxo-3-(3-oxo-3,4-dihydro-2H-benzo[1,4]thiazin-6-yl)-oxazolidin-5-yl]-ethylamino}-methyl)-4,5-dihydro-pyrrolo[3,2,1-de][1,5]naphthyridin-7-one] | 2
O=C1COc2ccc(N3C[C@H](CCNCC4Cc5ccnc6ccc(=O)n4c56)OC3=O)cc2N1 (mixture of isomers) [Example 25, (RS)-5-({2-[(S)-2-oxo-3-(3-oxo-3,4-dihydro-2H-benzo[1,4]oxazin-6-yl)-oxazolidin-5-yl]-ethylamino}-methyl)-4,5-dihydro-pyrrolo[3,2,1-de][1,5]naphthyridin-7-one] | 4
O=C1CSc2ccc(N3C[C@@H](CCNCC4Cc5cccc6ccc(=O)n4c56)OC3=O)cc2N1 (mixture of isomers) [Example 26, (RS)-2-({2-[(R)-2-oxo-3-(3-oxo-3,4-dihydro-2H-benzo[1,4]thiazin-6-yl)-oxazolidin-5-yl]-ethylamino}-methyl)-1,2-dihydro-pyrrolo[3,2,1-ij]quinolin-4-one] | ≤ 0.063
O=C1COc2ccc(N3C[C@@H](CCNCC4Cc5cccc6ccc(=O)n4c56)OC3=O)cc2N1 (mixture of isomers) [Example 27, (RS)-2-({2-[(R)-2-oxo-3-(3-oxo-3,4-dihydro-2H-benzo[1,4]oxazin-6-yl)-oxazolidin-5-yl]-ethylamino}-methyl)-1,2-dihydro-pyrrolo[3,2,1-ij]quinolin-4-one] | ≤ 0.063
O=C1CSc2ccc(N3C[C@@H](CNCC4Cc5cccc6ccc(=O)n4c56)OC3=O)cc2N1 (mixture of isomers) [Example 28, (RS)-2-({[(R)-2-oxo-3-(3-oxo-3,4-dihydro-2H-benzo[1,4]thiazin-6-yl)-oxazolidin-5-ylmethyl]-amino}-methyl)-1,2-dihydro-pyrrolo[3,2,1-ij]quinolin-4-one] | ≤ 0.063
O=C1COc2ccc(N3C[C@H](CCNCC4Cc5cccc6ncc(=O)n4c56)OC3=O)nc2N1 (mixture of isomers) [Example 31, (RS)-5-({2-[(S)-2-oxo-3-(3-oxo-3,4-dihydro-2H-pyrido[3,2-b][1,4]oxazin-6-yl)-oxazolidin-5-yl]-ethylamino}-methyl)-5,6-dihydropyrrolo[1,2,3-de]quinoxalin-3-one] | ≤ 0.063
O=C1CSc2ccc(N3C[C@@H](CCN[C@@H]4Cc5c(F)ccc6ccc(=O)n(c56)C4)OC3=O)cc2N1 (racemic) [Example 7, (6RS)-8-fluoro-6-{2-[(RS)-2-oxo-3-(3-oxo-3,4-dihydro-2H-benzo[1,4]thiazin-6-yl)-oxazolidin-5-yl]-ethylamino}-6,7-dihydro-5H-pyrido[3,2,1-ij]quinolin-3-one] | ≤ 0.063
O=C1CSc2ccc(N3C[C@@H](CNC[C@H]4Cc5c(F)ccc6ccc(=O)n4c56)OC3=O)cc2N1 [Example 6, (R)-9-fluoro-2-({[(R)-2-oxo-3-(3-oxo-3,4-dihydro-2H-benzo[1,4]thiazin-6-yl)-oxazolidin-5-ylmethyl]-amino}-methyl)-1,2-dihydro-pyrrolo[3,2,1-ij]quinolin-4-one] | ≤ 0.063
O=C1COc2ccc(N3C[C@@H](CNC[C@H]4Cc5c(F)ccc6ccc(=O)n4c56)OC3=O)cc2N1 [Example 8, (R)-9-fluoro-2-({[(R)-2-oxo-3-(3-oxo-3,4-dihydro-2H-benzo[1,4]oxazin-6-yl)-oxazolidin-5-ylmethyl]-amino}-methyl)-1,2-dihydro-pyrrolo[3,2,1-ij]quinolin-4-one] | 0.125 (≈ 0.269 µM)
